Reference: PMC10535864, “Novel Aminopyrimidine-2,4-diones, 2-Thiopyrimidine-4-ones, and 6-Arylpteridines as Dual-Target Inhibitors of BRD4/PLK1: Design, Synthesis, Cytotoxicity, and Computational Studies” (Pharmaceuticals, 2023)
Read-outs that look alike come from different tables or passages of the source.

Columns and labels:
[1] = test system: MDA-MB-231 breast cancer cells; test: MTT cytotoxicity assay, MDA-MB-231; assay type: cell-based; details: MDA-MB-231, MTT
Protocol: (§1) All newly synthetic compounds were tested for cytotoxicity using a six-dose MTT colorimetric assay on three cancer cell lines; namely, breast cancer cells (MDA-MB-231), colorectal adenocarcinoma cells (HT-29) and renal cancer cells (U-937). […] However, renal cancer cells (U-937) were discovered to be the least sensitive.
(§2) Using a six-dose MTT colorimetric assay, all new synthetic compounds were tested for cytotoxicity against three cancer cell lines: MDA-MB-231 breast cancer cells, HT-29 colorectal adenocarcinoma cells, and U-937 renal cancer cells. […] These cell lines were supplied by ATCC (American Type Culture Collection) via the Holding company for biological products and vaccines (VACSERA, Cairo, Egypt). The reference control used was Methotrexate. Detailed descriptions of the MTT colorimetric assay’s protocol can be found in the Supplementary file.
(§3) 1.1.In-vitro cytotoxicity screening
(§4) Using a six-dose MTT colorimetric assay, allnew synthetic compounds were tested for cytotoxicity against three cancer cell lines: MDA-MB-231 breast cancer cells,HT-29 colorectal adenocarcinoma cells, and U-937 renal […]
(§5) The cell lines were supplied by ATCC (American Type Culture Collection). The reference control used was Methotrexate. The cytotoxic activities of the examined compounds were quantified by inoculating a 96-well tissue culture plate with 1 X 10^5 cells / mL (100 uL/well) and incubating it at 37°C for 24 hours to develop a complete monolayer sheet. After forming a confluent sheet of cells, the growth medium was decanted from 96-well microtiter plates, and the cell monolayer was washed twice with wash media. Two-fold dilutions of tested samples were made in RPMI medium with 2% serum (maintenance medium), and 0.1 mL of each dilution was tested in different wells, with three wells serving as controls and receiving only maintenance medium. Following that, the plate was incubated at 37°C and examined. Cells were investigated for any physical signs of toxicity, such as partial or complete monolayer loss, rounding, shrinkage, or cell granulation. MTT solution was prepared (5mg/ml in PBS) (BIO BASIC CANADA INC), and 20 uL MTT solution was added to each well. After 5 minutes on a shaking table at150 rpm to thoroughly mix the MTT into the media, it was incubated (37°C, 5% CO2) for 4 hours to allow the MTT to be metabolized. Formazan (MTT metabolic product) was resuspended in 200 uL DMSO and shaken at 150 rpm for 5 minutes to thoroughly mix the formazan into the solvent. The optical density was measured at 560 nm, and the background was subtracted at 620 nm. Finally, the IC50 of the test compound in comparison to the reference was calculated using the GraphPad Prism software. […]

[2] = test system: HT-29 colorectal adenocarcinoma cells; test: MTT cytotoxicity assay, HT-29; assay type: cell-based; details: MTT
Protocol: as §1, §2, §3, §4, §5

[3] = MTT cytotoxicity assay, U-937; assay type: cell-based; details: Homo sapiens, U-937, U937, MTT;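 note: Six-dose MTT colorimetric assay on cell monolayers, formazan absorbance read at 560 nm with 620 nm background removed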
Protocol: (§17) Using a six-dose MTT colorimetric assay [44, 66], all new synthetic compounds were tested for cytotoxicity against three cancer cell lines: MDA-MB-231 breast cancer cells, HT-29 colorectal adenocarcinoma cells, and U-937 renal cancer cells. […] These cell lines were supplied by ATCC (American Type Culture Collection) via the Holding company for biological products and vaccines (VACSERA, Cairo, Egypt). The reference control used was Methotrexate.
(§18) Using a six-dose MTT colorimetric assay [44, 66], allnew synthetic compounds were tested for cytotoxicity against three cancer cell lines: MDA-MB-231 breast cancer cells,HT-29 colorectal adenocarcinoma cells, and U-937 renal
(§19) The cell lines were supplied by ATCC (American Type Culture Collection). The reference control used was Methotrexate. The cytotoxic activities of the examined compounds were quantified by inoculating a 96-well tissue culture plate with 1 X 10^5 cells / mL (100 uL/well) and incubating it at 37°C for 24 hours to develop a complete monolayer sheet. After forming a confluent sheet of cells, the growth medium was decanted from 96-well microtiter plates, and the cell monolayer was washed twice with wash media. Two-fold dilutions of tested samples were made in RPMI medium with 2% serum (maintenance medium), and 0.1 mL of each dilution was tested in different wells, with three wells serving as controls and receiving only maintenance medium. Following that, the plate was incubated at 37°C and examined. Cells were investigated for any physical signs of toxicity, such as partial or complete monolayer loss, rounding, shrinkage, or cell granulation. MTT solution was prepared (5mg/ml in PBS) (BIO BASIC CANADA INC), and 20 uL MTT solution was added to each well. After 5 minutes on a shaking table at150 rpm to thoroughly mix the MTT into the media, it was incubated (37C, 5% CO2) for 4 hours to allow the MTT to be metabolized. Formazan (MTT metabolic product) was resuspended in 200 uL DMSO and shaken at 150 rpm for 5 minutes to thoroughly mix the formazan into the solvent. The optical density was measured at 560 nm, and the background was subtracted at 620 nm. Finally, the IC50 of the test compound in comparison to the reference was calculated using the GraphPad Prism software.

[4] = test system: U-937 renal cancer cells; test: MTT cytotoxicity assay, U-937; assay type: cell-based; details: MTT; for Toxicity %: U937;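 for all read-outs here: Six-dose MTT colorimetric assay on cell monolayers, formazan absorbance read at 560 nm with 620 nm background removed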
Protocol: as §17, §18, §19

[5] = molecular target: T1, BRD4 (BD2) (Homo sapiens, UniProt O60885); test: BRD4 inhibitory activity assay (AlphaLISA Bromodomain Assay); assay type: binding;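 note: in vitro inhibition of recombinant BRD4 BD2 bromodomain binding to a BET bromodomain ligand, read by AlphaLISA proximity signal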
T1 construct: BRD4 (BD2) should be thawed on ice; purchased
Protocol: The BRD4 and PLK1 inhibitory assays were carried out in vitro in accordance with the manufacturer’s instructions; BRD4 was assessed using AlphaLISA Bromodomain Assay Protocol [67], and PLK1 kinase was tested using the ADP-Glo™ Kinase Assay Protocol [68], as detailed in the Supplementary file.
The BRD4 and PLK1 inhibitory assays were carried out in vitro in accordance with the manufacturer's instructions; BRD4 was assessed using AlphaLISA Bromodomain Assay Protocol [67], and PLK1 kinase was tested using the ADP-Glo™ Kinase Assay Protocol [68],
The master mixture was prepared as follows: N wells × (2.5 µL 3x BRD Homogeneous Assay Buffer 1 + 1 µL BET Bromodomain Ligand + 1.5 µL H2O). BRD4 (BD2) should be thawed on ice. Simply, the protein-containing tube was spined to recover the full content of the tube after the firstthaw. Both proteins should be aliquoted into single-use aliquots. Immediately, any remaining undiluted protein should be stored in aliquots at -80°C. BRD4 (BD2) was diluted in 1x BRD Homogeneous Assay Buffer 1 at 4 ng/µL. The diluted proteins were kept on ice until they were used. 5 µl of the master mixture is added to each well designated for the “Positive Control”, “Test Inhibitor”, and “Blank”. For the “Substrate Control”, 2.5 µL 3x BRD Homogeneous Assay Buffer 1 + 1 µL Non-acetylated Ligand 1 + 1.5 µL H2O is added. Each “Test Inhibitor” well received 2.5 µL of inhibitor solution, while the “Positive
Control”, “Substrate Control”, and “Blank” wells received 2.5 µL of the same solution without inhibitor (inhibitor buffer). Then, the “Blank” well is filled with 2.5 µL of 1x BRD Homogeneous Assay Buffer 1. After that, GSH
10 µL per well is added, the plate isshaken, and itis incubated at room temperature for 30 minutes. Streptavidin-
10 µL is added per well and incubated at room temperature for further 15 – 30 minutes [67]. The Alpha counts were read using the EnVision® multimode plate reader with the standard Alpha detection settings.

[6] = molecular target: human recombinant PLK1 (Homo sapiens, UniProt P53350); test: PLK1 inhibitory activity assay (ADP-Glo Kinase Assay); assay type: biochemical; details: for IC50: mean of three independent experiments, read-out: PLK1 IC50 ± SD; for %inh: PLK1 Lab Report
Protocol: The BRD4 and PLK1 inhibitory assays were carried out in vitro in accordance with the manufacturer’s instructions; BRD4 was assessed using AlphaLISA Bromodomain Assay Protocol, and PLK1 kinase was tested using the ADP-Glo™ Kinase Assay Protocol, as detailed in the Supplementary file. […]
1.2.2. PLK1 inhibitory activity assay
The kinase reaction was performed with active human recombinant PLK1 and combined with the substrate dephosphorylated casein (positive control) using 1 X reaction buffer (40 mM Tris-HCl pH 7.4, 20 mM MgCl2, 0.1 mg/mL BSA, 1 mM DTT) and 20 μM ATP. The reaction was incubated at30°C for 45 minutes. The amount of ATP transferred was calculated using […] reagent from Promega according to the manufacturer’s instruction.
A plate-reading luminometer isused to measure the luminescence. […]

[7] = test system: MDA-MB-231 cells; test: Cell cycle analysis, propidium iodide flow cytometry; assay type: cell-based; details: treated at IC50 concentration, 48 h, control 9.19%
Description: (§6) The results are indicated as a dot plot graph with four quadrant images (Figure 5B). […] However, both compounds also raised the necrotic percent by 1.8- and 2.8-fold, respectively, compared to non-treated cells. Overall, these findings implied that compound 7 could exert anticancer activity by producing cell cycle arrest at the G2/M phase and inducing apoptosis.
(§7) An Epics XL-MCL™ Flow Cytometer and Flowing software 2012 were used to count and analyze stained cells. The Supplementary file contains detailed descriptions of the flow cytometric analysis of cell-cycle distribution and cellular apoptosis. […]
(§8) 1.3.Cell cycle and apoptosis screening […]
(§9) investigated using an Ab-139418 propidium iodide flow cytometry kit and an Annexin-V assay and biparametric cytofluorimetric analysis, respectively, as instructed by the manufacturer. IC50s of both 7 and […]
Cytometer and Flowing software were used to count and analyze stained cells. The Supplementary file contains detailed descriptions of the flow cytometric analysis of cell-cycle distribution and cellular apoptosis.
1.3.1. Cell cycle analysis […]
a six-well plate containing MDA-MB-231 breast cancer cells was seeded with 1 X 10^5 cells per well and then […]
Following that, cells were gathered and fixed in ice-cold 70% ethanol at 4 °C for 12 hours. The cells were then rinsed with cold Phosphate Buffer Saline (PBS) and incubated for 30 minutes at 37°C in 0.5 mL of PBS after the ethanol was removed. Propidium iodide was used to stain the cells for 30 min while they were in the dark. DNA content was determined using a flow cytometer. […]

[8] = test system: MDA-MB-231 cells; test: Apoptosis screening, annexin V-FITC/PI flow cytometry; assay type: cell-based; details: compared to non-treated control MDA-MB-231 cells
Description: as §6, §7, §8, §9
Cytometer and Flowing software were used to count and analyze stained cells. The Supplementary file contains detailed descriptions of the flow cytometric analysis of cell-cycle distribution and cellular apoptosis. […]
1.3.2. Apoptosis screening […]
plate received 1 X 105 conc. breast cancer (MDA-MB-231) cells that were then incubated for 24 hours. The cells […]
with PBS, and stained for 15 min at room temperature in the dark with annexin V-FITC and PI in binding buffer (10 […]
µM HEPES, 140 µM NaCl, and 2.5 µM CaCl2 at pH 7.4). […]
high-quality RNA iseluted in RNase-free water.
1.4.2. Master mix preparation
All the following reagents were mixed together to give a totalvolume (50 μL). 2X SYBR® Green RT-PCR reaction mixture (25 μL), forward primer (10 μM) (1.5 μL), reverse primer (10 μM) (1.5 μL), nuclease-free H2O (11 μL), RNA template (1 pg to 100 ng totalRNA) (10 μL) and iScript reverse transcriptase for One-Step RT-PCR (1 μL).
1.4.3. Amplification protocol
Incubate complete reaction mixture in a real-time thermal detection system (Rotorgene) as follows: cDNA synthesis:
10 min at 50 °C, iScript reverse transcriptase inactivation: 5 min at 95 °C, polymerase chain reaction (PCR) cycling and detection (30–45 cycles): 10 s at 95 °C and 30 s at 55 °C to 60 °C (data collection step) and melt curve analysis:
1 min at95 °C and 1 min at55 °C and 10 s at55 °C (80 cycles, increasing each by 0.5 °C each cycle).

[9] = test system: BAX gene in MDA-MB-231 cells; test: RT-PCR gene expression, BAX; assay type: cell-based; details: 48 h treatment, control = 1
Protocol: (§10) As well, there was an apparent increase in caspase-3, showing 3.9-fold more expression than in control cells.
(§11) Fluorometric analysis was used to gauge the level of these genes’ expression. The procedure for the used kit was carried out in accordance with the manufacturer’s instructions, which are detailed in the Supplementary file. […]
(§12) […] at pH 7.4). The flow cytometer was then used to examine the cells […]
(§13) 1.4.Estimation of apoptotic and anti-apoptotic gene markers […]
(§14) such as Bax and caspase-3, as well as anti-apoptotic genes such as Bcl-2, was studied using the BIORAD iScriptTM One-Step RT-PCR kit with SYBR® Green. MDA-MB-231 cells were cultured before being treated for 48 hours […]
(§15) Fluorometric analysis was used to gauge the level of these genes' expression. The procedure for the used kit was carried out in accordance with the manufacturer's instructions, which are detailed as follows:
(§16) 1.4.1. RNA isolation and reverse transcription m RNA isolation iscarried out using an RNeasy extraction kit,up to 1 x 10^7 cells, depending on the cell line. Cells are disrupted in RNeasy Lysis Buffer (RLT buffer), homogenized, then ethanol is added to the lysate, creating conditions that promote selective binding of RNA to the RNeasy membrane. […]

[10] = test system: caspase-3 gene in MDA-MB-231 cells; test: RT-PCR gene expression, caspase-3; assay type: cell-based; details: 48 h treatment, control = 1
Protocol: as §10, §11, §12, §13, §14, §15, §16

[11] = test system: Bcl-2 gene in MDA-MB-231 cells; test: RT-PCR gene expression, Bcl-2; assay type: cell-based; details: 48 h treatment, control = 1
Protocol: as §10, §11, §12, §13, §14, §15, §16

human recombinant PLK1, sequence (P53350 whole entry): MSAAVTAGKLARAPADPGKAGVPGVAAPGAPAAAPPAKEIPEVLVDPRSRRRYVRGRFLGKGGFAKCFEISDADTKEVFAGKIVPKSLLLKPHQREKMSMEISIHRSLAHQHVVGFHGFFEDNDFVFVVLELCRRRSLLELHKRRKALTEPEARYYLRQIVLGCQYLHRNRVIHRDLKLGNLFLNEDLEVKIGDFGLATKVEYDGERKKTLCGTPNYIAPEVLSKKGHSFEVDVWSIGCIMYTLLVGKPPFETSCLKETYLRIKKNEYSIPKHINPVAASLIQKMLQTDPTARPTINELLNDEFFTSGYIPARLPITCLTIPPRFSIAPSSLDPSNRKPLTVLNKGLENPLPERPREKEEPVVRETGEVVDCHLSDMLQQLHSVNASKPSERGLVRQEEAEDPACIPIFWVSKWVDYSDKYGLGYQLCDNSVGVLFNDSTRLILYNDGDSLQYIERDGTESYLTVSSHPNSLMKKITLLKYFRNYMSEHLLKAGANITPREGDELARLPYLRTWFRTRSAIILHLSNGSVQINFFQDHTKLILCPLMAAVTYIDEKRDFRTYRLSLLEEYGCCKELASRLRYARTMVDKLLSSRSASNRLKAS

Compound: COc1ccc(-c2cnc3c(n2)c(=O)[nH]c(=O)n3Cc2ccccc2)cc1 [Compound 9, 1-Benzyl-6-(4-methoxyphenyl)pteridine-2,4(1H,3H)-dione]
- IC50 ([1]; Homo sapiens, mean of three independent experiments ± SD, read-out: IC50 Value MDA-MB-231): 2070 ± 30 nM
- viability at 0.312 µM ([1]; Homo sapiens, 0.312 uM): 99.7%
- viability at 0.625 µM ([1]; Homo sapiens, 0.625 uM): 99.2%
- viability at 1.25 µM ([1]; Homo sapiens, 1.25 uM): 86.2%
- viability at 2.5 µM ([1]; Homo sapiens, 2.5 uM): 33%
- viability at 5 µM ([1]; Homo sapiens, 5 uM): 13.5%
- viability at 10 µM ([1]; Homo sapiens, 10 uM): 5.45%
- Toxicity % ([1]; 0.312 uM): 0.266%
- Toxicity % ([1]; 0.625 uM): 0.7979%
- Toxicity % ([1]; 1.25 uM): 13.79%
- Toxicity % ([1]; 2.5 uM): 66.98%
- Toxicity % ([1]; 5 uM): 86.48%
- Toxicity % ([1]; 10 uM): 94.55%
- Toxicity % ([2]; HT29, 0.312 uM): 0.2584%
- Toxicity % ([2]; HT29, 0.625 uM): 0.08613%
- Toxicity % ([2]; HT29, 1.25 uM): 0.08613%
- Toxicity % ([2]; HT29, 2.5 uM): 12.36%
- Toxicity % ([2]; HT29, 5 uM): 68.22%
- Toxicity % ([2]; HT29, 10 uM): 88.67%
- viability at 0.312 µM ([2]; Homo sapiens, HT-29, HT29, 0.312 uM): 99.7%
- viability at 0.625 µM ([2]; Homo sapiens, HT-29, HT29, 0.625 uM): 99.9%
- viability at 1.25 µM ([2]; Homo sapiens, HT-29, HT29, 1.25 uM): 99.9%
- viability at 2.5 µM ([2]; Homo sapiens, HT-29, HT29, 2.5 uM): 87.6%
- viability at 5 µM ([2]; Homo sapiens, HT-29, HT29, 5 uM): 31.8%
- viability at 10 µM ([2]; Homo sapiens, HT-29, HT29, 10 uM): 11.3%
- IC50 ([2]; Homo sapiens, HT-29, mean of three independent experiments ± SD, read-out: IC50 Value HT-29): 4110 ± 50 nM
- viability at 0.312 µM ([3]; 0.312 uM): 99.8%
- viability at 0.625 µM ([3]; 0.625 uM): 100%
- viability at 1.25 µM ([3]; 1.25 uM): 98.6%
- viability at 2.5 µM ([3]; 2.5 uM): 77%
- viability at 5 µM ([3]; 5 uM): 42%
- viability at 10 µM ([3]; 10 uM): 19.3%
- IC50 ([4]; Homo sapiens, U-937, mean of three independent experiments ± SD, read-out: IC50 Value U-937): 4420 ± 180 nM
- Toxicity % ([4]; 0.312 uM): 0.2179%
- Toxicity % ([4]; 0.625 uM): 0%
- Toxicity % ([4]; 1.25 uM): 1.416%
- Toxicity % ([4]; 2.5 uM): 23.04%
- Toxicity % ([4]; 5 uM): 58.01%
- Toxicity % ([4]; 10 uM): 80.66%
- IC50 ([5]; mean of three independent experiments, read-out: BRD4 IC50 ± SD): 179 ± 8 nM
- IC50 [6]: 41 ± 1 nM
- melting point: > 300 °C

Compound: CC[C@@H]1C(=O)N(C)c2cnc(Nc3ccc(C(=O)N[C@H]4CC[C@H](N5CCN(CC6CC6)CC5)CC4)cc3OC)nc2N1C(C)C [Volasertib, reference compound]
- IC50 [5]: 17 ± 1 nM
- %inh ([6]; conc 0.01 (unit not given)): 42%
- %inh ([6]; conc 0.1 (unit not given)): 58%
- %inh ([6]; conc 1 (unit not given)): 76%
- %inh ([6]; conc 10 (unit not given)): 91%
- %inh ([6]; conc 100 (unit not given)): 96%
- IC50 [6]: 25 ± 1 nM
- DNA content % at cell cycle phase %G2/M [7]: 17.38%
- elevation in the late apoptotic stage [8]: ~110.2 fold
- increase in early apoptosis [8]: 24.4 fold
- increase in total apoptosis [8]: 16.3 fold
- rise of necrotic percent [8]: 2.8 fold
- Gene expression BAX (apoptotic gene) [9]: 5.332 fold
- Gene expression Caspase-3 (apoptotic gene) [10]: 5.531 fold
- Gene expression Bcl-2 (anti-apoptotic gene) [11]: 0.351 fold
